For assay [1], the target named is JAK2 (Homo sapiens (Human), UniProt O60674). The experiment in a line: Inhibition of enzymatic JAK2 kinase activity (TR-FRET). In kind it is biochemical. The settings on record: read-out: IC50 JAK. The gist of the method:
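TR-FRET read-out (Eu antibody donor, Ulight poly Glu-Tyr acceptor, 665/615 nm ratio) after a 60 min RT kinase reaction with ATP, begun following 30 min compound–enzyme preincubation. Stopped by EDTA; inhibition expressed as 100 minus % activity of positive control.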
In general terms: In TR-FRET formats the signal depends on donor and acceptor labels being close together.

Assay [2] deals with RBL2H3 cells. The experiment in a line: Degranulation assay: β-hexosaminidase release during immune complex mediated degranulation. In kind it is cell-based, rat. The settings on record: Rattus norvegicus, RBL-2H3, Assay Protocol B (96 well format); for inhibition at 1 µM: read-out: Degranulation % inhibition at 1 μM; for EC50: read-out: Degranulation EC50. The gist of the method: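 Fluorometric β-NAG read-out (Ex 355, Em 460 nm; 30 min, RT) of supernatant after DNP-BSA stimulation (45–60 min) of anti-DNP IgE-sensitized RBL2H3 cells. Compounds (0.5% DMSO) added 15 min before antigen; degranulation expressed as % β-hexosaminidase release or inhibition.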

Assay [3] deals with Syk (356-635 amino acids) catalytic domain (Homo sapiens (Human), UniProt P43405). Description: Inhibition of enzymatic Syk kinase activity (radiometric). The settings on record: read-out: IC50 Syk. In kind it is biochemical. The method, boiled down: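 Radiometric filter-binding format: 32P transfer from γ-32P-ATP onto pG4T, scintillation-counted after acid washes of P81 paper. Syk kinase domain (356-635), 0.035–7.5 ng per reaction, was exposed to compound for 30 minutes at room temperature before a 10-minute, 30° C. reaction with ATP (100 μM stock). Inhibition derived from counts with versus without compound.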

Assay [4] concerns Collagen Induced Arthritis (CIA) in female Lewis rats. Description: In vivo chronic study: Collagen Induced Arthritis (CIA). The settings on record: 0.5 mg/Kg. The arrangement: species or system rat. The source says: Collagen Induced Arthritis (CIA) is a well characterized model of human rheumatoid arthritis (RA) that can be induced in susceptible animals following immunization with type II collagen (cII) in Freund's adjuvant. […] Pathophysiology of CIA consists of T cell component, as evidenced by increased infiltration of T-cells in joint synovium and also, by attenuation of CIA in T-cell deficient mice. CIA development involves B cell component too, as is evidenced by circulating cII antibody in disease animals and also, failure to develop the disease in xid mice/B cell deficient mice/CXCR5 null mice. […] See, Pine, “Inflammation and bone erosion are suppressed in models of rheumatoid arthritis following treatment with a novel Syk inhibitor”, Clin. Immunol., 2007, 124(3):244-57; Xiong cha, “Suppression of the onset and progression of collagen-induced arthritis in rats by QFGJS, a preparation from an anti-arthritic Chinese herbal formula”, J. Ethnopharmacology (2007) 110:39-48; and Stolina, “The evolving systemic and local biomarker milieu at different stages of disease progression in rat collagen induced arthritis”, Biomarkers (2008) 13(7-8):692-712, which are herein incorporated by reference.
Female Lewis rats (8 per group, 6-8 weeks old) were immunized on day 1 with type II collagen (Immunization grade Bovine type II; Chondrex; Cat #20021) emulsified with Complete Freund's Adjuvant (Sigma; Cat# F5881) at a final concentration of 1.2 mg/mL). For the initial immunization, the animals were injected at the base of the tail with 300 μg of the cII (0.25 mL/rat). A booster injection of the same type II collagen emulsified with Incomplete Freund's Adjuvant (Sigma, Cat #F5506) (0.25 mL/rat) was given to the animals on day 8 at the base of the tail (100 μg). The final cII concentration in the booster was […].
Animals with an arthritic score of ≥1 were grouped and dosing with test compound (30 mg/kg bid) or methotrexate (0.5 mg/kg) started between about day 12 to day 14, with daily dosing of their respective compounds continuing for 10 days.
Edema: Paw volumes are measured by Plethysmometry for the animals before induction of CIA (Basal readings) and on Day 1, 3, 6 and 9 of dosing period. Both hind paw volumes were measured and edema was calculated by subtracting from the basal mean.
Arthritic score: Animals were scored for the symptoms of arthritis every day starting from Day of onset of disease till the end of the study. Both the hind paws were scored and the total scores were averaged and compared with control. The scoring pattern was as follows:
The percent inhibition of Edema was calculated with respect to control by the formula: […]
The percent inhibition of Arthritic score was calculated with respect to control by the formula: […]
Means of different groups were compared with control using one way ANOVA followed by Dunnett's test. Significance is represented as follows.

Structures are written as SMILES. Counter-ions that a name gives are not always drawn. Bounds are passed on as bounds.

Chain of JAK2 (O60674 808-1132): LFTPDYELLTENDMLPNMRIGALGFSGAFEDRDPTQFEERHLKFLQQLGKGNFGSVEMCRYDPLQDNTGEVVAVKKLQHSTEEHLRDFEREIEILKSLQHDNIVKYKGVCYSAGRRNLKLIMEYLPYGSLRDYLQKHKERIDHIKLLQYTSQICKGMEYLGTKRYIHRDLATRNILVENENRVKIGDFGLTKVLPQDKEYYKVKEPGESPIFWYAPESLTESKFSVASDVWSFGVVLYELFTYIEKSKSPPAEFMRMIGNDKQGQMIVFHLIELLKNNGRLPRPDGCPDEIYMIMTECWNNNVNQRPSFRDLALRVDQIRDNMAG

One may read the IC50 as the concentration at which inhibition is half-maximal. As usually defined, the inhibition is how much of the control response was suppressed. The term EC50 denotes the concentration needed to bring the measured effect to its halfway point. Turning to `CN1CCN(C(=O)COc2ccc(Nc3nc(N4CCCCCC4)nc4cn[nH]c(=O)c34)cc2)CC1` [Example 283, 2-(azepan-1-yl)-4-((4-(2-(4-methylpiperazin-1-yl)-2-oxoethoxy)phenyl)amino)pyrimido[4,5-d]pyridazin-5(6H)-one], the IC50 in assay [1] is under 10 nM. Also, in assay [2], the inhibition at 1 µM was 71% and the EC50 turned out to be 39 nM. Further, in assay [3], the IC50 is under 10 nM.

In the case of `N#CCC1CCN(c2nc(Nc3ccc(N4CCCC(CO)C4)cc3)c3c(=O)[nH]ncc3n2)CC1` (stereo not shown) [Example 284, 2-(1-(4-((4-(3-(hydroxymethyl)piperidin-1-yl)phenyl)amino)-5-oxo-5,6-dihydropyrimido[4,5-d]pyridazin-2-yl)piperidin-4-yl)acetonitrile], in assay [1], the half-maximal inhibitory concentration (IC50) was under 10 nM. In addition, in assay [2], the inhibition at 1 µM worked out at 92% and the 50% effective concentration (EC50) stood at 21 nM. Besides, the concentration for half-maximal inhibition (IC50) in assay [3] was under 10 nM.

Take `COC1CCN(c2ccc(Nc3nc(N4CCC(CC#N)CC4)nc4cn[nH]c(=O)c34)cc2)CC1` [Example 287, 2-(1-(4-((4-(4-methoxypiperidin-1-yl)phenyl)amino)-5-oxo-5,6-dihydropyrimido[4,5-d]pyridazin-2-yl)piperidin-4-yl)acetonitrile]: the concentration for half-maximal inhibition (IC50) in assay [1] and in assay [3] was under 50 nM throughout. Also, the inhibition at 1 µM in assay [2] turned out to be 97%. Further, the EC50 in assay [2] stood at 20 nM.

As for `O=c1[nH]ncc2nc(N3CCCCCC3)nc(Nc3ccc(OC4CCNCC4)cc3)c12` [Example 292, 2-(azepan-1-yl)-4-((4-(piperidin-4-yloxy)phenyl)amino)pyrimido[4,5-d]pyridazin-5(6H)-one hydrochloride], the concentration for half-maximal inhibition (IC50) in assay [1] and in assay [3] was under 10 nM in each case. Also, the inhibition at 1 µM in assay [2] turned out to be 65%. The EC50 in assay [2] worked out at 83 nM.

On to `CC(C)(CO)N1CCCN(c2ccc(Nc3nc(N4CCC(CC#N)CC4)nc4cn[nH]c(=O)c34)cc2)CC1` [Example 297, 2-(1-(4-((4-(4-(1-hydroxy-2-methylpropan-2-yl)-1,4-diazepan-1-yl)phenyl)amino)-5-oxo-5,6-dihydropyrimido[4,5-d]pyridazin-2-yl)piperidin-4-yl)acetonitrile], for which the half-maximal inhibitory concentration (IC50) in assay [1] is under 50 nM; in assay [3], under 10 nM. Also, in assay [2], the inhibition at 1 µM was 99%. Besides, in assay [2], the EC50 came to 18 nM.

As for `O=C(O)CCc1ccc(Nc2nc(N3CCCCCC3)nc3cn[nH]c(=O)c23)cc1` [Example 304, 3-(4-((2-(azepan-1-yl)-5-oxo-5,6-dihydropyrimido[4,5-d]pyridazin-4-yl)amino)phenyl)propanoic acid], the half-maximal inhibitory concentration (IC50) in assay [1] was under 10 nM. In assay [2], the inhibition at 1 µM worked out at 70% and the 50% effective concentration (EC50) was 55 nM. Besides, the IC50 in assay [3] is under 10 nM.

As to `N#CCC1CCN(c2nc(Nc3ccc(CCC(=O)O)cc3)c3c(=O)[nH]ncc3n2)CC1` [Example 305, 3-(4-((2-(4-(cyanomethyl)piperidin-1-yl)-5-oxo-5,6-dihydropyrimido[4,5-d]pyridazin-4-yl)amino)phenyl)propanoic acid], the IC50 is under 50 nM in assay [1] and under 10 nM in assay [3]. Also, the inhibition at 1 µM in assay [2] stood at 17%. The concentration giving a half-maximal response (EC50) in assay [2] came to 834 nM.

With `O=c1[nH]ncc2nc(N3CCCCCC3)nc(Nc3ccc(N(CCO)CCO)cc3)c12` [Example 306, 2-(azepan-1-yl)-4-((4-(bis(2-hydroxyethyl)amino)phenyl)amino) pyrimido[4,5-d]pyridazin-5(6H)-one], the IC50 in assay [1] was under 10 nM. For the same compound, in assay [2], the inhibition at 1 µM came to 100% and the half-maximal effective concentration (EC50) is 15 nM. For the same compound, the concentration for half-maximal inhibition (IC50) in assay [3] was under 10 nM.

With `N#CCC1CCN(c2nc(Nc3ccc(N(CCO)CCO)cc3)c3c(=O)[nH]ncc3n2)CC1` [Example 307, 2-(1-(4-((4-(bis(2-hydroxyethyl)amino)phenyl)amino)-5-oxo-5,6-dihydropyrimido[4,5-d]pyridazin-2-yl)piperidin-4-yl)acetonitrile], the half-maximal inhibitory concentration (IC50) in assay [1] is under 10 nM. For the same compound, in assay [2], the inhibition at 1 µM was determined as 14% and the concentration for a half-maximal effect (EC50) was 312 nM. In addition, the IC50 in assay [3] was under 10 nM.

In the case of `O=c1[nH]ncc2nc(N3CCCCCC3)nc(Nc3ccc(OC4CCN(CCO)CC4)cc3)c12` [Example 329, 2-(azepan-1-yl)-4-((4-((1-(2-hydroxyethyl)piperidin-4-yl)oxy)phenyl)amino) pyrimido[4,5-d]pyridazin-5(6H)-one], in assay [1], the IC50 was under 10 nM. Besides, in assay [2], the inhibition at 1 µM stood at 69% and the EC50 came to 62 nM. For the same compound, in assay [3], the IC50 is under 10 nM.

Consider `O=c1[nH]ncc2nc(N3CCCCCC3)nc(Nc3ccc4[nH]nnc4c3)c12` [Example 339, 4-((1H-benzo[d][1,2,3]triazol-5-yl)amino)-2-(azepan-1-yl)pyrimido[4,5-d]pyridazin-5(6H)-one], for which the IC50 in assay [1] was under 50 nM. For the same compound, in assay [2], the inhibition at 1 µM came out at 83% and the EC50 is 31 nM. Further, in assay [3], the IC50 was under 10 nM.

As to `CN(Cc1cnc2nc(N)nc(N)c2n1)c1ccc(C(=O)N[C@@H](CCC(=O)O)C(=O)O)cc1` [Methotrexate, methotrexate, reference compound], the “Percent inhibition of Edema (Day 9 of dosing)” value in assay [4] (Day 9 of dosing) was 6. In addition, in assay [4] (Day 10 of dosing), the “Percent inhibition of Arthritic score (Day 10 of dosing)” value is 15.

The values are drawn from US10183944B2 (Asana Biosciences, LLC, priority 2011, dated 2019).
